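Method: 48-hour compound exposure of cells in 96-well plates, five concentrations, linear interpolation of endpoints. Here, GI50 denotes the concentration required for 50% inhibition of growth.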 The source made the active and inactive calls. Rule as the data show it: active = GI50 up to about 1.1 µM and inactive = higher.
Assays:
Assay in all cases: DTP human tumour cell line panel, 48 h
[1] = tested on: NCI/ADR-RES
[2] = tested on: Malme-3M
[3] = tested on: U-251
[4] = tested on: RPMI-8226
[5] = tested on: CCRF-CEM
[6] = tested on: DMS-114
[7] = tested on: HCC 2998
[8] = tested on: HOP-62
[9] = tested on: SNB-75
[10] = tested on: NCI-H226
[11] = tested on: NCI-H522
[12] = tested on: LOX IMVI
[13] = tested on: HOP-18
[14] = tested on: A498
[15] = tested on: MCF7
[16] = tested on: SK-MEL-5
[17] = tested on: COLO 205
[18] = tested on: MOLT-4
[19] = tested on: UACC-257
[20] = tested on: UO-31
[21] = tested on: SK-OV-3
[22] = tested on: NCI-H23
[23] = tested on: CAKI-1
[24] = tested on: DMS-273
[25] = tested on: KM-20L2
[26] = tested on: OVCAR-8
[27] = tested on: HT-29
[28] = tested on: EKVX
[29] = tested on: SN12C
[30] = tested on: SW-620
[31] = tested on: SK-MEL-28
[32] = tested on: UACC-62
[33] = tested on: A549
[34] = tested on: OVCAR-3
[35] = tested on: SF-539
[36] = tested on: DLD-1
[37] = tested on: IGROV-1
[38] = tested on: SNB-19
[39] = tested on: HCT-116
[40] = tested on: HL-60
[41] = tested on: KM12
[42] = tested on: XF498
[43] = tested on: SF-295
[44] = tested on: K562
[45] = tested on: M19-MEL
[46] = tested on: OVCAR-4
[47] = tested on: HOP-92
[48] = tested on: SF-268
[49] = tested on: SK-MEL-2
[50] = tested on: SNB-78
[51] = tested on: HCT-15
[52] = tested on: OVCAR-5
[53] = tested on: RXF 393
[54] = tested on: NCI-H460

Measured: GI50

O=NN(CCCl)C(=O)NC1CCSc2ccccc21 (centres undefined)
inactive: [1] > 100 µM | [2] > 100 µM | [3] 58.2 µM | [4] > 61.4 µM | [5] 10.3 µM | [6] 47.2 µM | [7] > 100 µM | [9] 87.3 µM | [10] > 100 µM | [11] > 100 µM | [12] 82 µM | [13] > 69 µM | [14] > 100 µM | [15] > 100 µM | [16] > 100 µM | [17] > 100 µM | [18] 35.1 µM | [19] > 100 µM | [20] > 91.2 µM | [21] > 100 µM | [22] > 100 µM | [23] > 100 µM | [24] > 100 µM | [25] > 100 µM | [26] > 100 µM | [27] > 100 µM | [28] 28.3 µM | [29] > 100 µM | [30] > 100 µM | [31] > 58.2 µM | [32] 25 µM | [33] > 100 µM | [34] > 100 µM | [35] 27.4 µM | [36] > 100 µM | [37] > 100 µM | [38] > 90.2 µM | [39] > 100 µM | [40] 23.3 µM | [41] > 100 µM | [42] > 100 µM | [43] 57.8 µM | [44] > 62.4 µM | [45] > 100 µM | [46] > 100 µM | [47] > 100 µM | [48] 20.9 µM | [49] > 100 µM | [50] > 100 µM | [52] > 100 µM | [53] > 100 µM | [54] > 69.3 µM
active: [8] 0.776 µM
> 100 µM: [51]

Reference: ChEMBL document CHEMBL1201862, “PubChem BioAssay data set” (2004)
